Data as given in patent US5530095A, “Peptides of melanin concentrating hormone precursor” (The Salk Institute for Biological Studies, priority 1995, dated 1996).
Bridge positions count the residues as written; N and C are the ends. Ends that are not written are not given here. Peptide text beside a SMILES is read from it.

Columns and labels:
[1] = system: rabbit anti-salmon MCH antibody (Antibody PBL #171); assay: Radioimmunoassay based on rabbit anti-salmon MCH antibody PBL #171 with 125I-salmon MCH tracer; assay type: binding; conditions: for cross-reactivity in the salmon MCH radioimmunoassay: Antibody PBL #171
Description: Salmon MCH, having the formula [drawing 7] is synthesized and purified as described in Example I. It is then conjugated to human alpha-globulins (U.S. Biochemicals, Frac IV) via glutaraldehyde by a reaction well known in the art. The salmon MCH-human alpha-globulins conjugate is diluted with physiological saline (0.9%s/v) to a final concentration of 1 mg total protein per milliliter Freund's Complete Adjuvant Modified M. butyricum (Calbiochem) is emulsified with an equal volume of saline containing either 1 mg conjugate/ml (for initial injections) or 0.5 mg conjugate/ml (for boosters). For each immunization, the rabbits receive a total of 1 ml emulsion in 20-30 intradermal sites; they are injected every 2 weeks and bled through an ear vein 7 days after each booster. Blood is allowed to clot, and serum is separated from cells by centrifugation. The antiserum from each bleeding is characterized with respect to titer and affinity. Some of this antiserum is labelled PBL #171.
Salmon MCH (1 μg) is radiolabelled using 1 mCurie Na^125 I (New England Nuclear, NEZ 033L) and 1 μg Chloramine T in a total volume of 40 μl of 1.25M sodium phosphate buffer, pH 7.5. Reaction is allowed to proceed for 30-45 seconds and then immediately quenched by the addition of 10 mg bovine serum albumin (BSA). ^125 I-salmon MCH is then purified by adsorption and elution from a BondElut C18 cartridge (Analytichem International). The eluant from the C18 cartridge is reduced to about 200 μl using a Savant Speed-Vac and then further purified by HPLC using a Vydac C18 column, 0.46×25 cm, 5 μm, 300 Å pore size. Buffer A is 0.1% trifluoroacetic acid (TFA); buffer B is 60% acetonitrile in 0.1% TFA. ^125 I-salmon MCH is loaded at 35% B at a flow rate of 1.5 ml/min, and a gradient is then run to 70% B in 40 minutes. Peak tubes of radioactivity are made 0.5% final in BSA. Several peaks of radioactivity are reproducibly eluted, and the first major zone of radioactivity is routinely used for the radioimmunoassay.
Throughout the purification, fractions are monitored using an RIA based upon this rabbit anti-salmon MCH antibody. Aliquots for assay are transferred into glass tubes containing BSA (10 μl of 10 mg/ml) and dried in a Savant Speed Vac. Fractions are resuspended in RIA assay buffer and pH checked and adjusted if necessary with NaOH. The radioimmunoassay is carried out using chilled reagents and with tubes partially immersed in ice water. On day one, 100 μl of buffer with Antibody PBL #171 1/24,000 dilution (1/120,000 final dilution) is added to glass tubes containing standard or test samples or buffer only in a volume of 300 μl. All treatments are tested in duplicate. Buffer is 0.1M sodium chloride, 0.05M sodium phosphate, 0.025M ethylenediaminetetraacetic acid (EDTA), 0.1% sodium azide, pH 7.5 (SPEA buffer) with 0.1% BSA. Standards ranging from 0.5 to 2000 pg of synthetic salmon MCH are used. Samples are tested at 2-5 dose levels. After these additions, tubes are vortexed and incubated at 4 ° C. for 24 hours. On day two, 20,000 cpm of ^125 -salmon MCH with 0.5% normal rabbit serum diluted in SPEA buffer +0.1% BSA is added in a volume of 100 μl to all tubes. The tubes are vortexed and returned to the cold for approximately 24 hours. On day three, tracer bound to antibody is precipitated with sheep anti-rabbit gamma globulins (100 μl, 1/40 dilution) and 0.5 ml of 10% (w/v) polyethylene glycol (SIGMA, MW=6,000 to 8,000). Tubes are vortexed and incubated 15 to 30 minutes at room temperature. Tubes are washed with 1 ml of SPEA buffer and centrifuged at 4° C. for 30-45 minutes at 2000× g. Supernatants are decanted, and pellets are counted in a gamma counter. Results are calculated using a standard logit/log radioimmunoassay data processing program NICHD RRB, NIH.

[2] = system: rat pituitary halves (secretion of ACTH); assay: In vitro assay using rat pituitary halves to monitor secretion of ACTH; assay type: cell-based
Description: In vitro assays are performed with the mammalian MCH and the synthetic salmon MCH peptides, using rat pituitary halves to monitor for the secretion of ACTH. Assays of this type are described in more detail in Proc. Natl. Acad. Sci., 85, 5556-5560 (1988). […] As a result, it is believed that mammalian MCH should be useful as a natural, peptide regulator of the pituitary-adrenal axis. It is likewise believed that mammalian MCH peptides will be useful for clinical application in the treatment of pigment disorders as well as in the diagnosis and therapy of melanoma. It is also believed that they will be effective in the treatment of certain forms of dementia and may have uses in connection with nerve damage situations.

[3] = Biological potency in mammalian assays
[4] = system: melanosomes in amphibians; conditions: cited from earlier work
fish melanophores = conditions: cited from earlier work
[5] = system: antibodies against human GRF; assay: Cross-reaction with antibodies against human GRF; assay type: binding; conditions: suggested by homology of human GRF 30-37 with NGE 12-19
Source text: The sequences of the NGE's correspond to the sequences of amino acids 110-128 of the MCH precursors (see Tables 1 and 2, below). […] It is thought that NGE's, like NEI, have a biological function in vivo.

Molecule	cross-reactivity in the salmon MCH radioimmunoassay [1]	other results
SS-28: SS-28 peptide tested for RIA cross-reactivity (SANSNPAMAPRERKAGCKNFFWKTFTSC; ends and bridges not checked; cysteine pairing not given here; UniProt P61278 89-116, looked up)	no cross-reactivity	
CSCC[C@@H]1NC(=O)[C@@H](NC(=O)[C@H](CCCNC(=N)N)NC(=O)[C@H](CC(C)C)NC(=O)[C@H](CCSC)NC(=O)[C@H](CC(=O)O)NC(=O)[C@H](Cc2ccccc2)NC(=O)[C@@H](N)CC(=O)O)CSSC[C@@H](C(=O)N[C@@H](Cc2c[nH]c3ccccc23)C(=O)N[C@@H](CCC(N)=O)C(=O)N[C@H](C(=O)O)C(C)C)NC(=O)[C@@H]2CCCN2C(=O)[C@H](CCCNC(=N)N)NC(=O)[C@H](Cc2ccc(O)cc2)NC(=O)[C@H](C(C)C)NC(=O)[C@H](CCCNC(=N)N)NC(=O)CNC(=O)[C@H](CC(C)C)NC1=O [mammalian MCH]		modulation of ACTH secretion/production [2]: very potent modulators of ACTH production; displacement in radioimmunoassays ([1]; radioimmunoassays also run with synthetic salmon MCH): shows displacement; biological potency in mammalian assays [3]: more potent reaction than the alpha-MSH and beta-MSH antagonists
rat CRF: rat corticotropin-releasing factor (SEEPPISLDLTFHLLREVLEMARAEQLAQQAHSNRKLMEII; ends and bridges not checked; UniProt P01143 145-185, looked up)	no cross-reactivity	
SS-14: SS-14 peptide tested for RIA cross-reactivity (AGCKNFFWKTFTSC; ends and bridges not checked; cysteine pairing not given here; UniProt P61278 103-116, looked up)	no cross-reactivity	
CSCC[C@@H]1NC(=O)[C@@H](NC(=O)[C@H](CCCNC(=N)N)NC(=O)[C@H](CCSC)NC(=O)[C@@H](NC(=O)[C@@H](N)CC(=O)O)[C@@H](C)O)CSSC[C@@H](C(=O)N[C@@H](Cc2c[nH]c3ccccc23)C(=O)N[C@@H](CCC(=O)O)C(=O)N[C@H](C(=O)O)C(C)C)NC(=O)[C@@H]2CCCN2C(=O)[C@H](CCCNC(=N)N)NC(=O)[C@H](Cc2ccc(O)cc2)NC(=O)[C@H](C(C)C)NC(=O)[C@H](CCCNC(=N)N)NC(=O)CNC(=O)[C@H](C(C)C)NC1=O [salmon MCH] (H-DTMRCMVGRVYRPCWEV-OH; disulfide 5-14)		modulation of ACTH secretion/production [2]: substantially no effect on the secretion of ACTH; EC50 in the radioimmunoassay ([1]; Antibody PBL #171 1/120,000 final dilution, 125I-salmon MCH tracer, n=10): 18.5 ± 3.2 pg; effect on melanosomes in amphibians [4]: causing dispersal of melanosomes; biological potency in mammalian assays [3]: extremely little biological potency; melanosome aggregation (fish melanophores): induces melanosome aggregation
rat GRF: rat growth hormone releasing factor (HADAIFTSSYRRILGQLYARKLLHEIMNRQQGERNQEQRSRFN; Somatoliberin; UniProt P09916 31-73, looked up)	no cross-reactivity	
rat ACTH: rat ACTH peptide hormone (SYSMEHFRWGKPVGKKRRPVKVYPNVAENESAEAFPLEF; Corticotropin; UniProt P01194 124-162, looked up)	no cross-reactivity	
CC[C@H](C)[C@@H]1NC(=O)[C@H](Cc2ccc(O)cc2)NC(=O)[C@@H](N)CSSC[C@@H](C(=O)N2CCC[C@H]2C(=O)N[C@@H](CC(C)C)C(=O)NCC(N)=O)NC(=O)[C@H](CC(N)=O)NC(=O)[C@H](CCC(N)=O)NC1=O [oxytocin]	no cross-reactivity	
NC(=O)CC[C@@H]1NC(=O)[C@H](Cc2ccccc2)NC(=O)[C@H](Cc2ccc(O)cc2)NC(=O)[C@@H](N)CSSC[C@@H](C(=O)N2CCC[C@H]2C(=O)N[C@@H](CCCN=C(N)N)C(=O)NCC(N)=O)NC(=O)[C@H](CC(N)=O)NC1=O [arginine vasopressin]	no cross-reactivity	
β-MSH	no cross-reactivity	
β-endorphin (YGGFMTSEKSQTPLVTLFKNAIIKNAYKKGE; Beta-endorphin; UniProt P01189 237-267, looked up)	no cross-reactivity	
human GRF(1-40)-OH: human growth hormone releasing factor (1-40), free acid (YADAIFTNSYRKVLGQLSARKLLQDIMSRQQGESNQERGA-OH; UniProt P01286 32-71, looked up, fragment)	no cross-reactivity	
Gly-XNGE -Phe-Pro-Ala-Glu-Asn-Gly-Val-Gln-Asn-Thr-Glu-Ser-Thr-Gln-Glu		cross-reaction of anti-GRF antibodies [5]: cross-react
GnRH: GnRH peptide hormone (QHWSYGLRPG; ends and bridges not checked; UniProt P01148 24-33, looked up)	no cross-reactivity	
